In patent publication US20240189279A1, “IMMUNOMODULATORY COMPOSITIONS AND METHODS OF USE THEREOF” (THE TEXAS A&M UNIVERSITY SYSTEM, priority 2022, published 2024):

How the values were obtained:
[1] = tested on: colitis and fungal infection; conditions: administration of indole-3-aldehyde; cited from earlier work
[2] = tested on: TNFα and IL-1β expression in RAW 264.7 macrophages; test: TNFα and IL-1β expression (qRT-PCR) in RAW 264.7 macrophages, palmitate and LPS two-hit model; assay type: cell-based, murine
NSAID enteropathy = conditions: indole administration; cited from earlier work
AhR = target: T1, AhR (Homo sapiens, UniProt P35869); test: Cell-based AhR reporter assays; conditions: extent comparable to other endogenous Trp-derived ligands (e.g., kynurenine)
T1 sequence (P35869 11-848): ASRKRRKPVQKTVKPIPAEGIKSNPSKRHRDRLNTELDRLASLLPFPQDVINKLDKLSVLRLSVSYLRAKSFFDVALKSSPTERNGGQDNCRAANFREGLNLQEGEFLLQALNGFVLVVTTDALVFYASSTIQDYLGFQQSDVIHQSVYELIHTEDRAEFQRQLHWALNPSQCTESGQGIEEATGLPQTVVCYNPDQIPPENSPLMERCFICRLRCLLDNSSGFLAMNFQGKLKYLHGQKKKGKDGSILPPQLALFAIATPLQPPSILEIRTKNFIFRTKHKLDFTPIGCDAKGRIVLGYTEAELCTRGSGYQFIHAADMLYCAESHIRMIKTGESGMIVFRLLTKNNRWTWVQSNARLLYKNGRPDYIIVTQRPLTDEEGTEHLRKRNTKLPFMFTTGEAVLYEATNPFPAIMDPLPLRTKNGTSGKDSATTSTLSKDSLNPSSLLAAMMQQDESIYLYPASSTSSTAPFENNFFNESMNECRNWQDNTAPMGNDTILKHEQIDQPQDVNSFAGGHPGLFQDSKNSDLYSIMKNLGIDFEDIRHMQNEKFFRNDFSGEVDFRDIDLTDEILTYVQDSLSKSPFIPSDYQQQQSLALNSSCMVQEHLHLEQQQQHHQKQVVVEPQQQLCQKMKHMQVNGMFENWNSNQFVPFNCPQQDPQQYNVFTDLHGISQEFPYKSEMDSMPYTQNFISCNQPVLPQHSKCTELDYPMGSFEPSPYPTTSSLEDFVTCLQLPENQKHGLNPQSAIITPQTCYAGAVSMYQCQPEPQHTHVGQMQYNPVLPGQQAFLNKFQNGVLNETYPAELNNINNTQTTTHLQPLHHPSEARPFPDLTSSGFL

[3] = tested on: endotoxin-treated murine bone marrow derived macrophages; test: Cytokine expression in endotoxin-treated bone marrow derived macrophages; assay type: cell-based
[4] = tested on: palmitate and LPS stimulated macrophages; test: Cytokine production in palmitate and LPS stimulated macrophages; assay type: cell-based
[5] = RAW 264.7, 1 mM AICAR 4 h, 300 μM palmitate 18 h, 10 ng/ml LPS 6 h

SMILES: O=Cc1c[nH]c2ccccc12 [indole-3-aldehyde]
- IL-22 production from natural killer (NK) cells [1]: induced IL-22 production from natural killer (NK) cells
- mucosal inflammation [1]: protected against mucosal inflammation

SMILES: Cc1ccccc1N=Nc1ccc(NC(=O)c2ccnn2C)c(C)c1 [CH223191]
- effect of AhR inhibitor on I3A's reduction of palmitate and LPS induced TNFα and IL-β expression ([2]; RAW 264.7, CH223191 5 μM added 10 min before 1 mM I3A): did not alter I3A's effect

SMILES: NC(=O)c1ncn([C@@H]2O[C@H](COP(=O)(O)O)[C@@H](O)[C@H]2O)c1N [AICAR, 5-aminoimidazole-4-carboxamide ribonucleotide]
- attenuation of palmitate and LPS stimulated increase in IL-1β expression [2, 5]: 80%
- attenuation of palmitate and LPS stimulated increase in TNFα expression [2, 5]: 30%

SMILES: c1ccc2[nH]ccc2c1 [indole]
- mucosal inflammation and injury (NSAID enteropathy): decreased mucosal inflammation and injury

SMILES: NCCc1c[nH]c2ccccc12 [TA, tryptamine]
- AhR activation (AhR): dose-dependently activate the AhR
- expression of IL-1, TNF-α, and MCP-1 [3]: dose-dependently downregulate the expression of IL-1, TNF-α, and MCP-1
- production of TNF-α, IL-1β, and MCP-1 [4]: dose-dependently attenuated the production of TNF-α, IL-1β, and MCP-1
